The results in this text go back to patent US10174011B2, “Heterocyclic compounds, process for preparation of the same and use thereof” (SHANGHAI INSTITUTE OF MATERIA MEDICA, CHINESE ACADEMY OF …, priority 2014, dated 2019).

Molecules are shown by their SMILES. pEC50, pIC50: −log10 of the molar value. Where two headings read alike, the source gives them in different places.

Assay [1] relates to PCP-induced hyperactivity in mice. Put plainly: In vivo efficacy test (PCP-induced high locomotor activity in mice). Particulars: male ICR mice, oral administration 45 minutes before PCP 7 mg/kg i.p.; dose significantly reducing PCP-induced hyperactivity vs model group. The method, then: 5) In Vivo Efficacy Test (PCP-Induced High Locomotor Activity in Mice)
PCP solution was prepared in a suitable concentration for 7 mg/kg dosage with saline. […] Male ICR mice (18-22 g) were used as test animals. All the test mice were randomly divided into vehicle control group, model control group, positive control group, and treatment group(8 mice per group). Mice of each group were orally administered test compounds or vehicle. After 45 minutes PCP solution was administered (7 mg/kg) through intraperitoneal injection. The mice track after drug or saline administration was recorded and analyzed by the spontaneous, open-field video analysis system. […] The mice track was recorded and analyzed by the spontaneous, open-field video analysis system. The total distance in each group was calculate and expressed as mean+SD and statistical evaluation was performed by one way ANOVA.

Assay [2] addresses human recombinant 5-HT1A receptor (Homo sapiens (Human), UniProt P08908). In words: 5-HT1A receptor agonism activity test (inhibition of cAMP production, LANCE cAMP 384 Kit). Format: cell-based. Particulars: HEK293 cells expressing human recombinant 5-HT1A receptor; test concentration 0.1 nM-10000 nM; read-out: 5-HT1A receptor agonism (EC50, mol/L). From the text: Pharmacological Test 1) 5-HT1A Receptor Agonism Activity Test
Background: Changes in cAMP serve as a functional read-out for many G protein-coupled receptors.

The target of assay [3] is human recombinant D2 receptor (Homo sapiens (Human), UniProt P14416). In words: D2 receptor antagonism activity test (inhibition of dopamine-induced decrease of cAMP production, LANCE cAMP 384 Kit). Particulars: read-out: D2 receptor antagonism (IC50, mol/L), HEK293 cells expressing human recombinant D2 receptor, 0.1 nM-10000 nM.
Assay [4] addresses human recombinant 5-HT2A receptor (Homo sapiens (Human), UniProt P28223). Put plainly: 5-HT2A receptor antagonism activity test (FLIPR Calcium 5 Assay Kit). Particulars: read-out: 5-HT2A receptor antagonism (IC50, mol/L).
Setting [5] is: CHO-K1 cells expressing human recombinant 5-HT2A receptor, α-methyl-5-hydroxytryptamine 300 nM, 0.1 nM-10000 nM.

Chain of human recombinant 5-HT2A receptor (P28223 whole entry): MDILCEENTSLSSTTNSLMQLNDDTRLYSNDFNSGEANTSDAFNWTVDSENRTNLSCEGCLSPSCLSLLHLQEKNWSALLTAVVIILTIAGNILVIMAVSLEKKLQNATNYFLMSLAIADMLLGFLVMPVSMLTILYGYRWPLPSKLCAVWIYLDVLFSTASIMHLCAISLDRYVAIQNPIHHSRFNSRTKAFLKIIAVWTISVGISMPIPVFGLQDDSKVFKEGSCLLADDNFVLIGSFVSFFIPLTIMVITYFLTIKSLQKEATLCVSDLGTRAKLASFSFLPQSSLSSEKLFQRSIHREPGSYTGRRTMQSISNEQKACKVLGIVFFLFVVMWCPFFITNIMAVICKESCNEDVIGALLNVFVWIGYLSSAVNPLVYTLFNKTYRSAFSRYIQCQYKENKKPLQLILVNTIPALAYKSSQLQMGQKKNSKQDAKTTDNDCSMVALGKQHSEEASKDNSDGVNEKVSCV
Chain of human recombinant 5-HT1A receptor (P08908 whole entry): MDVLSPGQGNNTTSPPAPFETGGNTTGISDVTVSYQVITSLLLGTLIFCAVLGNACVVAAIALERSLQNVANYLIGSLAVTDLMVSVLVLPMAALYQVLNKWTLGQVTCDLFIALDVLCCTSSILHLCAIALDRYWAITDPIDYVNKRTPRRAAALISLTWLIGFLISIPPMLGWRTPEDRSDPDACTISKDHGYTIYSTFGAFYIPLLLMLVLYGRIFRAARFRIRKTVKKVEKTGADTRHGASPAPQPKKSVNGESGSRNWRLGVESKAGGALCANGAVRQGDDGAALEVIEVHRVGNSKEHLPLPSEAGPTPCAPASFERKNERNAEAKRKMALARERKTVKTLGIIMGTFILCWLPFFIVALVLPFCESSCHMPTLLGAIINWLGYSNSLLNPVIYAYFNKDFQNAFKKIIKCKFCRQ
Chain of human recombinant D2 receptor (P14416 whole entry): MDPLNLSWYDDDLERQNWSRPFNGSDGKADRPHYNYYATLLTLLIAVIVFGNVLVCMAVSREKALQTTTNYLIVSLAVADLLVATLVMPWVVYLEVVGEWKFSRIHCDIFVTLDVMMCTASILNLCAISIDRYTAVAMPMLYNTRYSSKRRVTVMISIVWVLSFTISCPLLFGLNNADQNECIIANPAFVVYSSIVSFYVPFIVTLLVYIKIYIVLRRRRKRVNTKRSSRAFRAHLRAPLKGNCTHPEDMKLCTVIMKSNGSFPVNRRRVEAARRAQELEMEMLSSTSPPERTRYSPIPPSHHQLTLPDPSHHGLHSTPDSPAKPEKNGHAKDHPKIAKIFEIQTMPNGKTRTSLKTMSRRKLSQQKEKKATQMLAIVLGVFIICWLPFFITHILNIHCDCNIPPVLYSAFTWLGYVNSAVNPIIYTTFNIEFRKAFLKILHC

Consider `O=C1Cc2cc(CCN3CCN(c4cccc5sccc45)CC3)ccc2N1` [Compound of example 8, 5-(2-(4-(benzo[b]thiophen-4-yl)piperazin-1-yl)ethyl)indolin-2-one], for which the “Effective dose” value in assay [1] lay in the range of 0.1 to 0.3 mg/kg.

For the molecule `Cl.O=C1Cc2cc(CCN3CCN(c4cccc5sccc45)CC3)c(Cl)cc2N1` [Compound of example 15, 5-(2-(4-(benzo[b]thiophen-4-yl)piperazin-1-yl)ethyl)-6-chloroindolin-2-one hydrochloride], the “Effective dose” value in assay [1] is 0.1 to 1 mg/kg.

Turning to `O=c1[nH]c2ccc(CCN3CCN(c4cccc5sccc45)CC3)cc2[nH]1` [Compound of example 27, 5-(2-(4-(benzo[b]thiophen-4-yl)piperazin-1-yl)ethyl)-1H-benzo[d]imidazol-2(3H)-one], in assay [1], the “Effective dose” value is reported as 0.3 mg/kg.

`Cl.O=c1[nH]c2ccc(CCN3CCN(c4cccc5sccc45)CC3)cc2s1` [Compound of example 29, 6-(2-(4-(benzo[b]thiophen-4-yl)piperazin-1-yl)ethyl)benzo[d]thiazol-2(3H)-one hydrochloride]: the “Effective dose” value in assay [1] amounted to 0.3 mg/kg.

Regarding `c1ccc2c(CCN3CCN(c4cccc5sccc45)CC3)c[nH]c2c1` [Compound of example 46, 3-(2-(4-(benzo[b]thiophen-4-yl)piperazin-1-yl)ethyl)-1H-indole], the “Effective dose” value in assay [1] is 1 mg/kg.

For the molecule `Cl.O=C1CCc2cc(CCN3CCN(c4cccc5sccc45)CC3)ccc2N1` [Compound of example 47, 6-(2-(4-(benzo[b]thiophen-4-yl)piperazin-1-yl)ethyl)-3,4-dihydroquinolin-2(1H)-one hydrochloride], in assay [1], the “Effective dose” value came to 0.3 mg/kg.

In the case of `Cl.O=C1CCCc2cc(CCN3CCN(c4cccc5sccc45)CC3)ccc2N1` [Compound of example 49, 7-(2-(4-(benzo[b]thiophen-4-yl)piperazin-1-yl)ethyl)-4,5-dihydro-1H-benzo[b]azepin-2(3H)-one hydrochloride], the “Effective dose” value in assay [1] is reported as 1 mg/kg.

For `CN1Cc2cc(CCN3CCN(c4cccc5sccc45)CC3)ccc2NC1=O` [Compound of example 51, 6-(2-(4-(benzo[b]thiophen-4-yl)piperazin-1-yl)ethyl)-3-methyl-3,4-dihydroquinazolin-2(1H)-one], the “Effective dose” value in assay [1] is on record as 1 mg/kg.

Take `c1cc(N2CCN(CCc3ccc4ncsc4c3)CC2)c2ccsc2c1` [Compound of example 59, 6-(2-(4-(benzo[b]thiophen-4-yl)piperazin-1-yl)ethyl)benzo[d]thiazole]: in assay [1], the “Effective dose” value stood at 0.3 mg/kg.

In the case of `O=c1ccc2ccc(CCCCCN3CCN(c4cc(F)cc5sccc45)CC3)cc2[nH]1` [Compound of example 71, 7-(5-(4-(6-fluorobenzo[b]thiophen-4-yl)piperazin-1-yl)pentyl)quinolin-2(1H)-one], the “Effective dose” value in assay [1] is on record as 3 mg/kg.

Consider `COc1ccc2[nH]cc(CCCCN3CCN(c4cccc5sccc45)CC3)c2c1` [Compound of example 107, 3-(4-(4-(benzo[b]thiophen-4-yl)piperazin-1-yl)butyl)-5-methoxy-1H-indole], for which, in assay [2], the pEC50 is 8.10. The pIC50 in assay [3] was 8.07; in assay [4] (setting [5]), 6.41.

In the case of `N#Cc1ccc2[nH]cc(CCCN3CCN(c4cccc5sccc45)CC3)c2c1` [Compound of example 108, 3-(3-(4-(benzo[b]thiophen-4-yl)piperazin-1-yl)propyl)-1H-indole-5-carbonitrile], the pEC50 in assay [2] was 7.35. Besides, the pIC50 was 7.66 in assay [3] and 6.09 in assay [4] (setting [5]).

For `CC(=O)n1cc(CCCCN2CCN(c3cccc4sccc34)CC2)c2cc(C#N)ccc21` [Compound of example 110, 1-acetyl-3-(4-(4-(benzo[b]thiophen-4-yl)piperazin-1-yl)butyl)-1H-indole-5-carbonitrile], the pEC50 in assay [2] is 7.08. Further, the figures for the pIC50 in assay [3] and in assay [4] (setting [5]) were 7.24 and 5.75, respectively.

`O=C1CCc2cc(CCCCN3CCN(c4cccc5sccc45)CC3)ccc2N1` [Compound of example 111, 6-(4-(4-(benzo[b]thiophen-4-yl)piperazin-1-yl)butyl)-3,4-dihydroquinolin-2(1H)-one]: the pEC50 in assay [2] is 7.53. Further, the pIC50 in assay [3] is 7.62; in assay [4] (setting [5]) it was 6.40.

With `O=C1Cc2cc(CCN3CCN(c4cccc5sc(F)cc45)CC3)c(Cl)cc2N1` [Compound of example 113, 6-chloro-5-(2-(4-(2-fluorobenzo[b]thiophen-4-yl)piperazin-1-yl)ethyl)indolin-2-one], the pEC50 in assay [2] is 8.04. The results for the pIC50 in assay [3] and in assay [4] (setting [5]) were 7.21 and 6.15, respectively.

As to `CN1C(=O)COc2ccc(CCN3CCN(c4cccc5sccc45)CC3)cc21` [Compound of example 114, 6-(2-(4-(benzo[b]thiophen-4-yl)piperazin-1-yl)ethyl)-4-methyl-2H-benzo[b][1,4]oxazin-3(4H)-one], in assay [2], the pEC50 was 8.09. The pIC50 in assay [3] was 7.57; in assay [4] (setting [5]), 6.34.

As to `CN1C(=O)CCc2ccc(CCN3CCN(c4cccc5sccc45)CC3)cc21` [Compound of example 115, 7-(2-(4-(benzo[b]thiophen-4-yl)piperazin-1-yl)ethyl)-1-methyl-3,4-dihydroquinolin-2(1H)-one], the pEC50 in assay [2] is 8.07. For the same molecule, the pIC50 in assay [3] is 7.53; in assay [4] it was 7.27.

With `CC(=O)Nc1nc2cc(CCN3CCN(c4cccc5sccc45)CC3)ccc2s1` [Compound of example 118, N-(5-(2-(4-(benzo[b]thiophen-4-yl)piperazin-1-yl)ethyl)benzo[d]thiazol-2-yl)acetamide], in assay [2], the pEC50 is 9.22. Besides, the pIC50 in assay [3] is 6.92; in assay [4] (setting [5]), 7.12.

Consider `CC(=O)Nc1nc2cccc(CCN3CCN(c4cccc5sccc45)CC3)c2s1` [Compound of example 119, N-(7-(2-(4-(benzo[b]thiophen-4-yl)piperazin-1-yl)ethyl)benzo[d]thiazol-2-yl)acetamide], for which the pEC50 in assay [2] is 9.10. The results for the pIC50 in assay [3] and in assay [4] (setting [5]) were 8.33 and 7.46, respectively.

As for `CC(=O)Nc1nc2c(CCN3CCN(c4cccc5sccc45)CC3)cccc2s1` [Compound of example 121, N-(4-(2-(4-(benzo[b]thiophen-4-yl)piperazin-1-yl)ethyl)benzo[d]thiazol-2-yl)acetamide], the pEC50 in assay [2] was 7.49. Besides, the pIC50 was 6.67 in assay [3] and 7.39 in assay [4] (setting [5]).

With `CC(=O)N1CC(CCN2CCN(c3cccc4sccc34)CC2)c2ccccc21.Cl` (centres unmarked) [Compound of example 124, 1-(3-(2-(4-(benzo[b]thiophen-4-yl)piperazin-1-yl)ethyl)indolin-1-yl)ethanone hydrochloride], the “Effective dose” value in assay [1] was determined as 3 mg/kg.

With `O=C1N[C@@H]2[C@@H](CS[C@@H]2CCCCCN2CCN(c3cccc4sccc34)CC2)N1` [Compound of example 134, (3aR,4R,6aS)-4-(5-(4-(benzo[b]thiophen-4-yl)piperazin-1-yl)pentyl)tetrahydro-1H-thieno[3,4-d]imidazol-2(3H)-one], the pEC50 in assay [2] was 9.12. Moreover, the pIC50 is 7.42 in assay [3] and 7.78 in assay [4] (setting [5]).

Take `O=C1COc2c(F)cc(CCN3CCN(c4cccc5sccc45)CC3)cc2N1` [Compound of example 139, 6-(2-(4-(benzo[b]thiophen-4-yl)piperazin-1-yl)ethyl)-8-fluoro-2H-benzo[b][1,4]oxazin-3(4H)-one]: the pEC50 in assay [2] is 9.12. In addition, the values for the pIC50 in assay [3] and in assay [4] (setting [5]) were 7.10 and 6.98, respectively.

With `COC(CN1CCN(c2cccc3sccc23)CC1)c1cccc2c1OCC(=O)N2` (centres unmarked) [Compound of example 144, 8-(2-(4-(benzo[b]thiophen-4-yl)piperazin-1-yl)-1-methoxyethyl)-2H-benzo[b][1,4]oxazin-3(4H)-one], the pEC50 in assay [2] is 8.05. Also, the pIC50 in assay [3] is 7.18; in assay [4], 7.77.

As to `O=C1Cc2cc(C(O)CN3CCN(c4cccc5sccc45)CC3)ccc2N1` (centres unmarked) [Compound of example 145, 5-(2-(4-(benzo[b]thiophen-4-yl)piperazin-1-yl)-1-hydroxyethyl)indolin-2-one], the pEC50 in assay [2] is 8.20. In addition, the pIC50 in assay [3] was 6.72; in assay [4] (setting [5]), 7.83.

On to `O=C1CCc2ccc(C(O)CCCCN3CCN(c4cccc5sccc45)CC3)cc2N1` (centres unmarked) [Compound of example 150, 7-(5-(4-(benzo[b]thiophen-4-yl)piperazin-1-yl)-1-hydroxypentyl)-3,4-dihydroquinolin-2(1H)-one], for which, in assay [2], the pEC50 is 7.80. The pIC50 in assay [3] is 8.34; in assay [4] (setting [5]), 6.97.

Consider `CC(=O)Nc1nc2ccc(CCN3CCN(c4cccc5sccc45)CC3)cc2s1` [Compound of example 153, N-(6-(2-(4-(benzo[b]thiophen-4-yl)piperazin-1-yl)ethyl)benzo[d]thiazol-2-yl)acetamide], for which, in assay [2], the pEC50 is 8.63. The values for the pIC50 in assay [3] and in assay [4] (setting [5]) were 8.42 and 7.72, respectively.
